Data set [1] deals with T1, Glycogen phosphorylase, liver form (Homo sapiens, UniProt P06737).
T1 sequence (P06737 whole entry): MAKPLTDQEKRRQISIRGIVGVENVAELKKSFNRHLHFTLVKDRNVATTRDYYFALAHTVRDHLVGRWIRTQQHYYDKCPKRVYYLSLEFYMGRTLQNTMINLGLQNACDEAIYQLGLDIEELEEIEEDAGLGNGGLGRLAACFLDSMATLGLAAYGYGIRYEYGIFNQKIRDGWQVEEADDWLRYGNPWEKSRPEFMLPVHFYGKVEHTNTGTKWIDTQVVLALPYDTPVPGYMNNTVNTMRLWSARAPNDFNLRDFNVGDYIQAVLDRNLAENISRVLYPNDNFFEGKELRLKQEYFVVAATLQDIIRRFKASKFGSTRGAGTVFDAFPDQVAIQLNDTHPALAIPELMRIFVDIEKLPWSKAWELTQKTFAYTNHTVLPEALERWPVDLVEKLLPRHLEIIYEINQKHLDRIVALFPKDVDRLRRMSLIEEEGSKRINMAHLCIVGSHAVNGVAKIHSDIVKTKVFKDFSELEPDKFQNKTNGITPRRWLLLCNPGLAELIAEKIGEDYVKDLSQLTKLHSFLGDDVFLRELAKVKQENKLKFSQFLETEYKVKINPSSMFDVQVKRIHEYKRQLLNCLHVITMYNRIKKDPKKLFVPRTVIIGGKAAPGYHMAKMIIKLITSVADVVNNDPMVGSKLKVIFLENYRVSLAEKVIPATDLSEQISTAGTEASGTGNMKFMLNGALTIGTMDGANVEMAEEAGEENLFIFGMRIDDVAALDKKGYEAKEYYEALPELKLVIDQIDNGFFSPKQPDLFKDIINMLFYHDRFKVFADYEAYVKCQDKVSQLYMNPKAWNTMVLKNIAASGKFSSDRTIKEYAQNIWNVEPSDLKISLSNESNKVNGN
Briefly: Inhibitory activity against HLGP(human liver glycogen phosphorylase).

The target of data set [2] is T2, Glycogen phosphorylase, muscle form (Homo sapiens, UniProt P11217).
T2 sequence (P11217 whole entry): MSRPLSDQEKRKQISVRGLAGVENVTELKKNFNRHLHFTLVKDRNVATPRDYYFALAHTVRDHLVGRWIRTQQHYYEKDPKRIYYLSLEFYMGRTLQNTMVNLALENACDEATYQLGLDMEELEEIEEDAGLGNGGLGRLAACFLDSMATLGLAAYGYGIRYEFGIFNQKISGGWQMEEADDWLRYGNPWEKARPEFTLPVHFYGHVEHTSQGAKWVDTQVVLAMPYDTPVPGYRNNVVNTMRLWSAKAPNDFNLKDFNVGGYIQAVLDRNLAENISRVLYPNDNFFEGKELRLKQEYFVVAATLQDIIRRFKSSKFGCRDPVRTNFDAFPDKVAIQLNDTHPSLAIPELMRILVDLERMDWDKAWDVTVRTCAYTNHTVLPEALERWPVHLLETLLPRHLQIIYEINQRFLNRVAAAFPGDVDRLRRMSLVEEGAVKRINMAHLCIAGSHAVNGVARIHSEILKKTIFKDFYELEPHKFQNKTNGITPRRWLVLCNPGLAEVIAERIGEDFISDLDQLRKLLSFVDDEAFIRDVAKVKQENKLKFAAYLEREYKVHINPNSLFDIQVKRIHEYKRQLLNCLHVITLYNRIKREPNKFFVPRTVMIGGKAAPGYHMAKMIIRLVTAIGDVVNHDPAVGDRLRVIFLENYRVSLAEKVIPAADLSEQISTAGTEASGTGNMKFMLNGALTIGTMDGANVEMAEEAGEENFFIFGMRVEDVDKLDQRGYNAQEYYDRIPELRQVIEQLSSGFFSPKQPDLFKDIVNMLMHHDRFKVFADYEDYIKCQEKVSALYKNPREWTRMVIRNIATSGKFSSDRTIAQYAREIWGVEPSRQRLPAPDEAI
The data set can be described thus: Inhibitory activity against HMGP(human muscle glycogen phosphorylase).

The target in data set [3] is T3, Glycogen phosphorylase, liver form (Mus musculus, UniProt Q9ET01).
T3 sequence (Q9ET01 whole entry): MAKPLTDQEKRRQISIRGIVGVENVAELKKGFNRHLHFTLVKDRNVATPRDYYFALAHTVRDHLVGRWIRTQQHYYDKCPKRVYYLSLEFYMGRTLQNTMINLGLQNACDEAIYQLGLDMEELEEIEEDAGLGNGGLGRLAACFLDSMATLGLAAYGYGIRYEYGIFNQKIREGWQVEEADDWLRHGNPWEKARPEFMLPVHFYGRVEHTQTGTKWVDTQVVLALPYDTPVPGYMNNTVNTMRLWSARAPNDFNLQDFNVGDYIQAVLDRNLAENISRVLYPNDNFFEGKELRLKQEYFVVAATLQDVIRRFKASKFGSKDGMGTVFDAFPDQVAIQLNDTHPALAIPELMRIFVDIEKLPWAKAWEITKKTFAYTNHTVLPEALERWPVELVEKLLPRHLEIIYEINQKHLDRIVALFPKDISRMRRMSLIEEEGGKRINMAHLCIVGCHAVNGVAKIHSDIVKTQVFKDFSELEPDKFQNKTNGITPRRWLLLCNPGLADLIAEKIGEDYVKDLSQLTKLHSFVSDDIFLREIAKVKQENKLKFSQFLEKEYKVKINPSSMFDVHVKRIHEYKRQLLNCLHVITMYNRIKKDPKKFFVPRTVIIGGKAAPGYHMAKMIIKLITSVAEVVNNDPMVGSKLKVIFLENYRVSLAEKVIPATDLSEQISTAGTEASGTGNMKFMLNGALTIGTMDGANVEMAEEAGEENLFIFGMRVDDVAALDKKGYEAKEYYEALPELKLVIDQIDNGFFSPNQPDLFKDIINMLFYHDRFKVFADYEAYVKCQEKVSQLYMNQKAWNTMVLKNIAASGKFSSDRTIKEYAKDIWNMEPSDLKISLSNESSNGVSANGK
Briefly: Inhibitory activity against mouse liver glycogen phosphorylase.

Data set [4] addresses T4, Glycogen phosphorylase, liver form (Rattus norvegicus, UniProt P09811).
T4 sequence (P09811 whole entry): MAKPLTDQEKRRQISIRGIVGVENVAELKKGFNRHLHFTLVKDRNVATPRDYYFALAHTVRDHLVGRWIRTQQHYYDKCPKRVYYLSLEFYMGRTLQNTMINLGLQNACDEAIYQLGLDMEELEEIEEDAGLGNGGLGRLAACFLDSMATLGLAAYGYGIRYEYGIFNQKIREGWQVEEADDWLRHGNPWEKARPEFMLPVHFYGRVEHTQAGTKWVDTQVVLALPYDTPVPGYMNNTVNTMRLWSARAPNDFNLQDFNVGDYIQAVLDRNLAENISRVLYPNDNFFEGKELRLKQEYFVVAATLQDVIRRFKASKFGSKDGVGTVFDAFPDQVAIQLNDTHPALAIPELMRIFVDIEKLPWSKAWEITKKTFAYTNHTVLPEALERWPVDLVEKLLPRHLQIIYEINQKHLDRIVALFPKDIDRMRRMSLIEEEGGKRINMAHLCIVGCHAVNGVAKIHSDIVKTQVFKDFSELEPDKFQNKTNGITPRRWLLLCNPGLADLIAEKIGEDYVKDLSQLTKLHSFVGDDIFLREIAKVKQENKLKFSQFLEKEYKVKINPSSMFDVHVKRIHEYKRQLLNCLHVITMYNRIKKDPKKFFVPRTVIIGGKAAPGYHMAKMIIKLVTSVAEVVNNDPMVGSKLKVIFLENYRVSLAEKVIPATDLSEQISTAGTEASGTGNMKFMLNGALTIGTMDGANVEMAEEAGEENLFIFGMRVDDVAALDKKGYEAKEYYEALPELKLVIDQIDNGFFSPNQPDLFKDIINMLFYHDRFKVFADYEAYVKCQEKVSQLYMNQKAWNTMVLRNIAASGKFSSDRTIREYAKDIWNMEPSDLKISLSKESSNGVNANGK
The data set can be described thus: Inhibitory activity against rat liver glycogen phosphorylase.

Data set [5] is described as follows: Cmax in male mice after 2 mg/kg oral dose. Format: ADME, organism-based. Also noted: dose 2 mg/kg, route oral. To be noted: mouse, in vivo.
Data set [6] can be described thus: Bioavailability in male mice, 2mg/kg oral and 1 mg/kg intravenous dose. To be noted: mouse, in vivo. Type of data set: ADME, organism-based.
Data set [7] is described as follows: Half-life in male mice after 1 mg/kg intravenous dose. Also on record: dose 1 mg/kg, route intravenous. To be noted: mouse, in vivo. Format: ADME, organism-based.

Turning to `O=C(Nc1ccccc1Oc1ccc(C(=O)O)c(C(=O)O)c1)c1cc(I)ccn1`, the IC50 in data set [1] is 39 nM; in data set [2], 468 nM.

Take `COc1ccnc(C(=O)Nc2ccccc2Oc2ccc(C(=O)O)c(C(=O)O)c2)c1`: the IC50 in data set [1] was found to be 20 nM; in data set [2], 200 nM; in data set [3], 18 nM; in data set [4], 24 nM.

As for `O=C(Nc1cc2ccccc2cc1Oc1ccc(C(=O)O)c(C(=O)O)c1)c1ccccc1`, the results for the half-inhibitory concentration (IC50) in data set [1] and in data set [2] were 2880 nM and 12300 nM, respectively.

Turning to `O=C(Nc1c(F)cccc1Oc1ccc(C(=O)O)c(C(=O)O)c1)c1cc([N+](=O)[O-])ccn1`, the IC50 in data set [1] came to 1 nM; in data set [2], 9 nM.

For `O=C(Nc1cc2ccccc2cc1Oc1ccc(C(=O)O)c(C(=O)O)c1)c1cc(C(F)(F)F)ccn1`, the IC50 in data set [1] amounted to 12 nM; in data set [2], 80 nM.

With `O=C(Nc1ccccc1Oc1ccc(C(=O)O)c(C(=O)O)c1)c1cc(Cl)ccn1`, the IC50 in data set [1] worked out at 17 nM; in data set [2] it was 181 nM; in data set [3], 14 nM; in data set [4] it was 16 nM.

For the molecule `O=C(Nc1cc2ccccc2cc1Oc1ccc(C(=O)O)c(C(=O)O)c1)c1cccc([N+](=O)[O-])c1`, the figures for the IC50 in data set [1] and in data set [2] were 23 nM and 140 nM, respectively.

In the case of `COc1ccnc(C(=O)Nc2c(F)cccc2Oc2ccc(C(=O)O)c(C(=O)O)c2)c1`, the IC50 in data set [1] was 11 nM; in data set [2], 110 nM.

In the case of `N#Cc1ccnc(C(=O)Nc2ccccc2Oc2ccc(C(=O)O)c(C(=O)O)c2)c1`, the IC50 in data set [1] turned out to be 16 nM; in data set [2], 167 nM; in data set [3], 14 nM; in data set [4], 19 nM.

With `O=C(Nc1ccccc1Oc1ccc(C(=O)O)c(C(=O)O)c1)c1cc([N+](=O)[O-])ccn1`, the IC50 in data set [1] is 3 nM; in data set [2] it was 25 nM.

Turning to `CCc1ccnc(C(=O)Nc2cc3ccccc3cc2Oc2ccc(C(=O)O)c(C(=O)O)c2)c1`, the IC50 in data set [1] was 4 nM; in data set [2], 29 nM.

Take `Cc1ccnc(C(=O)Nc2cc3ccccc3cc2Oc2ccc(C(=O)O)c(C(=O)O)c2)c1`: the half-maximal inhibitory concentration (IC50) in data set [1] came to 10 nM; in data set [2], 57 nM.

Molecule `O=C(Nc1c(F)cccc1Oc1ccc(C(=O)O)c(C(=O)O)c1)c1cc(Cl)ccn1` showed a Cmax in data set [5] of 44 nM. For the same molecule, in data set [6], the bioavailability is 4.1%. In data set [7], this molecule yielded a half-life of 1 h. Moreover, the IC50 was 10 nM in data set [1], 60 nM in data set [2], less than 9 nM in data set [3] and less than 9 nM in data set [4].

On to `O=C(Nc1c(F)cccc1Oc1ccc(C(=O)O)c(C(=O)O)c1)c1cccc([N+](=O)[O-])c1`, for which the IC50 in data set [1] was 250 nM; in data set [2], 1860 nM; in data set [3], 207 nM; in data set [4], 302 nM.

Regarding `O=C(Nc1cc2ccccc2cc1Oc1ccc(C(=O)O)c(C(=O)O)c1)c1ccccn1`, the results for the IC50 in data set [1] and in data set [2] were 167 nM and 844 nM, respectively.

As for `O=C(Nc1cc(F)ccc1Oc1ccc(C(=O)O)c(C(=O)O)c1)c1cc([N+](=O)[O-])ccn1`, the IC50 in data set [1] stood at 13 nM; in data set [2], 109 nM.

For the molecule `O=C(Nc1cc(F)ccc1Oc1ccc(C(=O)O)c(C(=O)O)c1)c1cc(Cl)ccn1`, the values for the half-inhibitory concentration (IC50) in data set [1] and in data set [2] were 78 nM and 647 nM, respectively.

In the case of `COc1ccnc(C(=O)Nc2cc3ccccc3cc2Oc2ccc(C(=O)O)c(C(=O)O)c2)c1`, the results for the IC50 in data set [1] and in data set [2] were 2 nM and 12 nM, respectively.

For `O=C(Nc1cc2ccccc2cc1Oc1ccc(C(=O)O)c(C(=O)O)c1)c1cc(Cl)ccn1`, the IC50 in data set [1] came out at 2 nM; in data set [2] it was 12 nM.

As to `O=C(Nc1cc2ccccc2cc1Oc1ccc(C(=O)O)c(C(=O)O)c1)c1cc([N+](=O)[O-])ccn1`, the IC50 in data set [1] worked out at 1 nM; in data set [2] it was 3 nM.

(Values after ChEMBL document CHEMBL1136449, “A new class of glycogen phosphorylase inhibitors” (Bioorg Med Chem Lett, 2003).)
